Assay [1] concerns the target T1, CXCR4 (Homo sapiens, UniProt P61073). In words: HTRF dilution series assay on CXCR4 (displacement of red-CXCL12). In kind it is binding. As to conditions: for IC50: HEK293 ST-CXCR4 cells, red-CXCL12 20 nM, 2 h 16 °C, one-site competitive model, read-out: HTRF CXCR4-SDF1 IC50; for inhibition of HTRF at high concentrations: dilution series. Here is the method:
To obtain information on the structural requirements necessary for the interaction with CXCR4, we performed dilution series experiments (see Section 3.4.) by varying the concentrations of bis-imidazoline compounds in the HTRF assay used for the screening campaign (Table 1 and Figure 1A).
A three-fold serial dilution in DMSO was performed for each compound. Each concentration was tested in duplicate. For these experiments, Tag-lite CXCR4 and Tag-lite CXCR7 cell lines (5000 cells per well) were used. […] The IC50 values were determined with the Prism Software version 9 (Graph-Pad Software, San Diego, USA) using a one-site competitive binding model.
Data points are means ± SEM for three independent experiments.
(In TR-FRET formats the signal depends on donor and acceptor labels being close together.)

The test system of assay [2] is CXCR4-using HIV-1 strains. In kind it is cell-based.
Assay [3] concerns the target T1, CXCR4. In words: HTRF Tag-lite primary screening: red-CXCL12 binding to HEK293 cells expressing ST-CXCR4. As to conditions: single dose 6.6 µg/mL (compound final concentration in µM in brackets), HTRF ratio of compound divided by that of AMD3100 15 µM, 20 nM red-CXCL12, hit < 1.3. From the text: As a starting point of this study, we set up a high-throughput screening of 6851 compounds available at the time from the CERMN (Centre d’Etude et de Recherche sur le Médicament de Normandie) chemical library for their ability to interact with CXCR4 (see Section 3.3 for details). We applied a homogeneous cell-based binding assay using Homogeneous Time-Resolved Fluorescence resonance energy transfer (HTRF) Tag-lite technology. […] We investigated the capacity of the compounds to inhibit energy transfer between the Lumi4-Tb donor and acceptor red-CXCL12, which results in a decrease in the HTRF signal (i.e., the ratio between the acceptor and donor fluorescence signals at 665 and 620 nm, respectively). […] Each 384-well plate was analyzed independently. First, using negative and positive controls, the value of the Z′ factor [52] was determined. […]
All compounds are in DMSO at a concentration of 3.3 mg/mL (average concentration of 9.85 ± 3.7 mM). […] After a 2 h incubation at 16 °C, the fluorescence emission was measured at 620 nm and 665 nm using an excitation wavelength at 343 nm on a Safire2 (Tecan, Männedorf, Switzerland) microplate reader. The HTRF ratio was defined as following: Ratio = (Fluorescence intensity at 665 nm/Fluorescence intensity at 620 nm) × 10^4. […]

For assay [4], the system named is HIV-1 X4-28 Env. In words: microbe, parasite or virus in culture. As to conditions: Human immunodeficiency virus 1, 48 h, read-out: extrapolated IC50, infection with X4-28 Env. In kind it is cell-based.
For assay [5], the system named is HIV-1 NL4-3 Env. In words: microbe, parasite or virus in culture. The class given is cell-based. The note with it: Human immunodeficiency virus 1, NL43, 48 h, read-out: extrapolated IC50, infection with NL4-3 Env.
In assay [6] the target is endogenous CXCR4 (Homo sapiens, UniProt P61073). The assay can be described thus: Displacement of 125I-labeled CXCL12 binding in blood mononuclear cells. As to conditions: blood mononuclear cells from a healthy donor, data not shown.
Chain of endogenous CXCR4 (P61073 whole entry): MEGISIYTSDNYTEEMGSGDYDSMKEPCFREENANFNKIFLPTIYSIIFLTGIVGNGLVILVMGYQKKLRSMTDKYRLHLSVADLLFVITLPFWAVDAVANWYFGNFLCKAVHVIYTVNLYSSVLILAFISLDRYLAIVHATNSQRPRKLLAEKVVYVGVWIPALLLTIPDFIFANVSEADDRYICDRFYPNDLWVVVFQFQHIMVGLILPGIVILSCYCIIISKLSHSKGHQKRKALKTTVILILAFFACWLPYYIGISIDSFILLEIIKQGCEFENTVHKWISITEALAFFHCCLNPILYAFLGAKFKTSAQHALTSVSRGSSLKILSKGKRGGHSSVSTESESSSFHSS
[7] abbreviates: primary CD4+ T lymphocytes, NL4-3 and X4-28 Envs.

Entries after “also recorded” stand apart in the source; their conditions may differ. Like-named read-outs stand apart in the source and are kept apart here.

T1 sequence (P61073 whole entry): as above

What is called IC50 is the concentration needed to halve the response being measured. Turning to `C(CCCCNC1=NCCN1)CCCCNC1=NCCN1` [mr20348], the IC50 in assay [1] amounted to 6620 ± 4310 nM.

Turning to `c1cc(CN2CCCNCCNCCCNCC2)ccc1CN1CCCNCCNCCCNCC1` [AMD3100, reference compound], in assay [2], the anti-HIV-1 activity entry was “by far the most potent antiviral activity of all tested molecules”.

On to `C(CCCNC1=NCCN1)CCNC1=NCCN1` [mr20345], for which the “HTRF CXCR4-SDF1 Relative HTRF Ratio” value in assay [3] is given as 2.78 (13.0). In addition, in assay [1], the IC50 was 40900 ± 23000 nM.

For `C(CCCCCCNC1=NCCN1)CCCCCNC1=NCCN1` [mr20350], the IC50 in assay [4] was 720 nM; in assay [5] it was 2600 nM. In addition, the anti-HIV-1 activity entry in assay [2] (setting [7]) is “observed; also recorded: strongest anti-HIV-1 activity”. In addition, the “inhibition of HTRF at high concentrations” value (“inhibition of HTRF” below) in assay [1] is given as “fully inhibited HTRF”.

Turning to `C(CCCCCNC1=NCCN1)CCCCCNC1=NCCN1` [mr34200], the IC50 in assay [1] came to 15500 nM.

For the compound `C(CCCNC1=NCCN1)CCCNC1=NCCN1` [mr20346], the “HTRF CXCR4-SDF1 Relative HTRF Ratio” value in assay [3] was 1.87 (12.6). Further, in assay [1], the IC50 worked out at 1850 ± 930 nM.

Regarding `C(CCCCNC1=NCCN1)CCCNC1=NCCN1` [mr20347], in assay [2] (setting [7]), the anti-HIV-1 activity result was “not and no effect”. Further, in assay [1], the IC50 was determined as 350 ± 90 nM and the “inhibition of HTRF” value was “fully inhibited HTRF”.

For `C(CCCCCNC1=NCCN1)CCCCNC1=NCCN1` [mr20349], the IC50 in assay [4] was 1100 nM; in assay [5] it was 30000 nM; in assay [1] it was 470 ± 360 nM. The anti-HIV-1 activity entry in assay [2] (setting [7]) is “observed”. For the same compound, the “displacement of 125I-labeled CXCL12 binding” value in assay [6] was “confirmed”. Further, the “inhibition of HTRF” value in assay [1] is “fully inhibited HTRF”.

The values are drawn from publication PMC9920567, “Discovery of Bis-Imidazoline Derivatives as New CXCR4 Ligands” (Molecules, 2023).
